Results on 81 compounds are retold here after ChEMBL document CHEMBL3639166, “Heteroaryloxyheterocyclyl compounds as PDE10 inhibitors” (2013).

Each structure is given as a SMILES string.

For the assay, the target named is T1, cAMP and cAMP-inhibited cGMP 3',5'-cyclic phosphodiesterase 10A (Rattus norvegicus, UniProt Q9QYJ6).
T1 sequence (Q9QYJ6 whole entry): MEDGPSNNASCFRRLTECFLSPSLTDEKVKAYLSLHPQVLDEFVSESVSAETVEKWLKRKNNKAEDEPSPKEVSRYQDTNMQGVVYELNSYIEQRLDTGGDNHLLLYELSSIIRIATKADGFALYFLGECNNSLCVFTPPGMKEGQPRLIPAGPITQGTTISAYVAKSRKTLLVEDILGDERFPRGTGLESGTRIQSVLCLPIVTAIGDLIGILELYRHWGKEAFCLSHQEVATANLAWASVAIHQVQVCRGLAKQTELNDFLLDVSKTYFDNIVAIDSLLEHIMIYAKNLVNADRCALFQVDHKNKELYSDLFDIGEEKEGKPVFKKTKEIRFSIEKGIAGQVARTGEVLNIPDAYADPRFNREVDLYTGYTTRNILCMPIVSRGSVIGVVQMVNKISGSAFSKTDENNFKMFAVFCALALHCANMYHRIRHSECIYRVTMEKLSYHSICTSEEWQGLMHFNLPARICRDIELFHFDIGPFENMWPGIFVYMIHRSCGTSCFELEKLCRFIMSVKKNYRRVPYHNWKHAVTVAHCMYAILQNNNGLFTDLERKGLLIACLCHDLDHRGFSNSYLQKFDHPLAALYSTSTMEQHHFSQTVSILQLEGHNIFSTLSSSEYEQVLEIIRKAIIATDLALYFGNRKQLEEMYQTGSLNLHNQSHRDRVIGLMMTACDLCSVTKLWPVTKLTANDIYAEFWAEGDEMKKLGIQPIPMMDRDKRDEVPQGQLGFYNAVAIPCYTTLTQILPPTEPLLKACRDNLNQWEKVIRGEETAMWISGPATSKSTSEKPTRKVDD
In words: Enzyme Inhibition Assay: Enzyme activity: An IMAP TR-FRET assay was used to analyze the enzyme activity (Molecular Devices Corp., Sunnyvale, Calif).
In turn, `OCc1cccc(-c2nccnc2OC2CN(c3ccc4ccccc4n3)C2)c1` returned an IC50 of 23.3 nM.

For `Cc1ncccc1-c1nccnc1OC1CN(c2ccc3ccccc3n2)C1`, half-maximal inhibition (IC50) required 135 nM.

Turning to `Cc1cc(-c2nccnc2OC2CN(c3ccc4ccccc4n3)C2)ccn1`, half-maximal inhibition (IC50) required 12.7 nM.

`c1ccc2nc(N3CC(Oc4nccnc4-c4cccc5ncccc45)C3)ccc2c1`: the IC50 came out at 87 nM.

`Nc1ncc2cc(-c3nccnc3OC3CN(c4ccc5ccccc5n4)C3)ccc2n1`: the midpoint of inhibition, the IC50, lay at 3.3 nM. Against the preceding compound, the IC50 is about 26-fold lower.

On to `COC(=O)N1CCC(c2nccnc2OC2CN(c3ccc4ccccc4n3)C2)CC1`, for which the IC50 came out at 158 nM.

`CS(=O)(=O)N1CCC(c2nccnc2OC2CN(c3ccc4ccccc4n3)C2)CC1`: the IC50 stood at 208 nM.

`CC(=O)N1CCC(c2nc3ccccc3nc2OC2CN(c3ccc4ccccc4n3)C2)CC1` had an IC50 of 2.9 nM.

Compound `O=C1CCC(c2nccnc2OC2CN(C(=O)c3nc4ccccc4[nH]3)C2)CC1` returned an IC50 of 114 nM.

With `N#Cc1ccc(-c2nccnc2OC2CN(c3ccc4ccccc4n3)C2)cn1`, the IC50 came to 50.6 nM.

As to `Cc1cc(-c2nccnc2O[C@@H]2CCN(c3ccc4ccccc4n3)C2)ccn1`, half-maximal inhibition (IC50) required 255 nM.

In turn, `Cc1cc(-c2nccnc2O[C@H]2CCN(c3ccc4ccccc4n3)C2)ccn1` displayed an IC50 of 639 nM.

`c1cncc(-c2nccc(OC3CN(c4ccc5ccccc5n4)C3)n2)c1` registered an IC50 of 35.6 nM. Against the preceding compound, the IC50 is about 18-fold lower.

As to `Nc1ccc(-c2nccc(OC3CN(c4ccc5ccccc5n4)C3)n2)cc1`, the midpoint of inhibition, the IC50, lay at 110 nM.

Compound `Fc1ccc(-c2nccnc2OC2CN(c3ccc4ccccc4n3)C2)cn1` returned an IC50 of 45.7 nM.

As for `Cc1ccncc1-c1nccnc1OC1CN(c2ccc3ccccc3n2)C1`, half-maximal inhibition (IC50) was put at 251 nM.

`COc1cccc(-c2nccnc2OC2CN(c3ccc4ccccc4n3)C2)c1` showed an IC50 of 19 nM.

Take `COc1cccc(-c2nccnc2OC2CN(c3ncc4ccccc4n3)C2)c1`: the IC50 amounted to 148 nM. This IC50 is about 7.8-fold higher than that of the compound before.

The compound `COc1ncccc1-c1nccnc1OC1CN(c2ncc3ccccc3n2)C1` displayed an IC50 of 178 nM.

`Cc1cccc(-c2nc3ccccc3nc2OC2CN(c3ccc4ccccc4n3)C2)c1` yielded an IC50 of 53.5 nM. Compared with the last compound, the IC50 is about 3.3-fold lower.

With `C1=C(c2nccnc2OC2CN(c3ccc4ccccc4n3)C2)CCOC1`, the IC50 came out at 14.9 nM.

Compound `c1ccc(Cc2ccc3oc(-c4nccnc4OC4CN(c5ccc6ccccc6n5)C4)cc3c2)cc1` came in with an IC50 of 363 nM. This IC50 is about 24-fold higher than that of the compound before.

Turning to `COc1ccc(-c2nccnc2OC2CN(c3ccc4ccccc4n3)C2)cn1`, the IC50 is 25.4 nM.

As to `c1ccc(-c2ccc(-c3nccnc3OC3CN(c4ccc5ccccc5n4)C3)s2)cc1`, the IC50 stood at 254 nM. Against the preceding compound, the IC50 is about 10-fold higher.

For the compound `CC(C)Oc1cc(F)cc(-c2nccnc2OC2CN(c3ccc4ccccc4n3)C2)c1`, the IC50 stood at 174 nM.

With `COc1ncc(-c2nccnc2OC2CN(c3ccc4ccccc4n3)C2)cn1`, the half-inhibitory concentration (IC50) stood at 42.8 nM.

For the compound `c1ccc2nc(N3CC(Oc4nccnc4-c4ccc(OCC5CC5)nc4)C3)ccc2c1`, the IC50 was 50.2 nM.

In turn, `COc1cccc(-c2cnc(N3CCC(CO)CC3)nc2OC2CN(c3ccc4ccccc4n3)C2)c1` showed an IC50 of 3.3 nM.

Regarding `Cc1cc(-c2cnc(N3CCC(CO)CC3)nc2OC2CN(c3ccc4ccccc4n3)C2)ccn1`, the IC50 amounted to 0.3 nM.

`COc1ncccc1-c1cnc(N2CCC(CO)CC2)nc1OC1CN(c2ccc3ccccc3n2)C1` showed an IC50 of 0.6 nM.

On to `Cc1ccc(-c2cnc(N3CCC(CO)CC3)nc2OC2CN(c3ccc4ccccc4n3)C2)cn1`, for which the IC50 was 0.2 nM.

`OCC1CCN(c2ncc(C3=CCOCC3)c(OC3CN(c4ccc5ccccc5n4)C3)n2)CC1` displayed an IC50 of 1.1 nM.

As for `CC(C)(C)OC(=O)N1CC=C(c2cnc(N3CCC(CO)CC3)nc2OC2CN(c3ccc4ccccc4n3)C2)CC1`, the IC50 was found to be 0.3 nM.

With `Cc1cc(-c2nccnc2OC2CN(C(=O)c3nc4ccccc4[nH]3)C2)ccn1`, the half-maximal inhibitory concentration (IC50) was determined as 156 nM.

The compound `COc1cnccc1-c1cccnc1OC1CN(C(=O)OCc2ccccc2)C1` showed an IC50 of 7640 nM.

As for `O=C(c1nc2ccccc2[nH]1)N1CCC(Oc2nccnc2-c2ccncc2)CC1`, the IC50 was determined as 230 nM.

`O=C(c1nc2ccccc2[nH]1)N1CC(Oc2nccnc2C2=CCOCC2)C1` showed an IC50 of 222 nM.

Consider `CC(C)(C)OC(=O)N1CCC=C(c2nccnc2OC2CN(C(=O)c3nc4ccccc4[nH]3)C2)C1`, for which the IC50 is 227 nM. This IC50 and that of the compound before are within 1.5-fold of each other.

`CC(C)(C)OC(=O)N1C=C(c2nccnc2OC2CN(C(=O)c3nc4ccccc4[nH]3)C2)CCC1` had an IC50 of 36.5 nM.

Take `Cc1cccc(-c2nccnc2OC2CN(c3ccc4ccccc4n3)C2)c1`: the IC50 was found to be 57.3 nM.

Consider `COc1cccc(-c2nc3ccccc3nc2OC2CN(c3ccc4ccccc4n3)C2)c1`, for which the concentration for half-maximal inhibition (IC50) was found to be 6.68 nM.

Compound `COc1ncccc1-c1nc2ccccc2nc1OC1CN(c2ccc3ccccc3n2)C1` came in with an IC50 of 5.5 nM.

On to `c1ccc(-c2nccc(OC3CN(c4ccc5ccccc5n4)C3)n2)nc1`, for which the midpoint of inhibition, the IC50, lay at 109 nM. Compared with the last compound, the IC50 is about 20-fold higher.

As to `OCc1ccc(-c2nccc(OC3CN(c4ccc5ccccc5n4)C3)n2)cc1`, the IC50 was 8.45 nM.

Compound `FC1(F)CCN(c2nccnc2OC2CN(c3ccc4ccccc4n3)C2)CC1` yielded a half-inhibitory concentration (IC50) of 4.23 nM.

`FC1(F)CCN(c2nccnc2OC2CN(c3ccc4ccccc4n3)C2)C1` displayed an IC50 of 95.3 nM.

On to `FC1(F)CCCN(c2nccnc2OC2CN(c3ccc4ccccc4n3)C2)C1`, for which the IC50 was found to be 92.1 nM.

Consider `Fc1cnc(OC2CN(c3ccc4ccccc4n3)C2)c(N2CCC(F)(F)CC2)c1`, for which half-maximal inhibition (IC50) was put at 144 nM.

Turning to `FC1(F)CCN(c2cccnc2OC2CN(c3ccc4ccccc4n3)C2)CC1`, the IC50 worked out at 35.9 nM. Against the preceding compound, the IC50 is about 4-fold lower.

On to `COCC(=O)N1CCC(c2nccnc2OC2CN(c3ccc4ccccc4n3)C2)CC1`, for which inhibition was half-maximal at 165 nM (IC50). Against the preceding compound, the IC50 is about 4.6-fold higher.

Take `CC(=O)N1CCC(c2cc(C)cnc2OC2CN(c3ccc4ccccc4n3)C2)CC1`: the IC50 was 67.8 nM.

On to `CC(=O)N1CCC(c2cc(F)cnc2OC2CN(c3ccc4ccccc4n3)C2)CC1`, for which 64.8 nM corresponded to half-maximal inhibition (IC50).

For `CC(=O)N1CCC(c2cccnc2OC2CN(c3ccc4ccccc4n3)C2)CC1`, the IC50 came to 68.8 nM.

As for `CC(=O)N1CC=C(c2nccnc2OC2CN(C(=O)OCc3ccccc3)C2)CC1`, the IC50 is 582 nM.

As to `CC(=O)N1CCC(c2nccnc2OC2CCN(c3ccc4ccccc4n3)CC2)CC1`, the IC50 was found to be 1640 nM.

`CC(=O)N1CC=C(c2nccnc2OC2CCN(C(=O)c3nc4ccccc4[nH]3)CC2)CC1` registered a 50% inhibitory concentration (IC50) of 71.8 nM.

Consider `CC(=O)N1CC=C(c2nccnc2OC2CN(C(=O)c3nc4ccccc4[nH]3)C2)CC1`, for which the IC50 amounted to 10.4 nM. Against the preceding compound, the IC50 is about 6.9-fold lower.

`CC(=O)N1CCCC(c2cccnc2OC2CN(C(=O)c3ccccn3)C2)C1` (stereo unspecified): 41 nM corresponded to half-maximal inhibition (IC50).

As for `CC(=O)N1CCCC(c2cccnc2OC2CN(C(=O)c3nc4ccccc4[nH]3)C2)C1` (stereo unspecified), the IC50 was 6.47 nM.

For `CC(C)C(=O)N1CCCC(c2cccnc2OC2CN(C(=O)c3nc4ccccc4[nH]3)C2)C1` (stereo unspecified), the IC50 came to 41.4 nM.

`CC(=O)N1CC=C(c2nccnc2OC2CN(C(=O)c3ccc[nH]3)C2)CC1` displayed an IC50 of 210 nM.

For `CC(=O)N1CCC=C(c2nccnc2OC2CN(C(=O)c3nc4ccccc4[nH]3)C2)C1`, 121 nM corresponded to half-maximal inhibition (IC50). Against the preceding compound, the IC50 is about 1.7-fold lower.

`CC(=O)N1CCC(c2cnc(N3CCC(CO)CC3)nc2OC2CN(c3ccc4ccccc4n3)C2)CC1` returned an IC50 of 0.39 nM.

The compound `COCC#Cc1nccnc1OC1CN(c2ccc3ccccc3n2)C1` came in with an IC50 of 282 nM.

Compound `c1cnc(OC2CN(c3ccc4ccccc4n3)C2)c(N2CCOCC2)c1` returned an IC50 of 12 nM.

`CC(=O)N1CCC(c2cccnc2OC2CN(C(=O)OC(C)(C)C)C2)CC1`: the IC50 came to 10200 nM.

`O=C(c1nc2ccccc2[nH]1)N1CC(Oc2ncccc2C2=CCOCC2)C1` yielded an IC50 of 0.864 nM.

In the case of `CC(C)(C)OC(=O)N1CC(Oc2ncccc2[C@H]2CC[C@H](O)CC2)C1`, the IC50 was found to be 15.8 nM.

`O=C(c1nc2ccccc2[nH]1)N1CC(Oc2ncccc2[C@H]2CC[C@@H](O)CC2)C1` showed an IC50 of 21.1 nM. The IC50 values of the last two compounds are within 1.5-fold of each other.

Consider `CC(=O)N1CCCC(c2cccnc2OC2CN(C(=O)c3cc(C)c[nH]3)C2)C1` (stereo unspecified), for which the IC50 came out at 7940 nM.

Consider `CC(=O)N1CC=C(c2nccnc2OC2CN(C(=O)c3cc(C)c[nH]3)C2)CC1`, for which the IC50 is 250 nM. This IC50 is about 32-fold lower than that of the compound before.

Regarding `CC(=O)N1CCCC(c2cccnc2OC2CN(C(=O)c3cc4ccccc4[nH]3)C2)C1` (stereo unspecified), the IC50 stood at 886 nM.

`CC(O)C1CCN(c2ccnnc2OC2CN(c3ccc4ccccc4n3)C2)CC1` (stereo unspecified) had an IC50 of 76.7 nM.

`OCC1CCN(c2nccc(OC3CN(c4ccc5ccccc5n4)C3)n2)CC1` registered an IC50 of 14.2 nM. Compared with the last compound, the IC50 is about 5.4-fold lower.

`O=C(c1nc2ccccc2[nH]1)N1CC[C@@H](Oc2nccnc2C2CCOCC2)C1` returned an IC50 of 2780 nM.

Compound `O=C(c1ccncn1)N1CC(Oc2ncccc2C2=CCOCC2)C1` yielded an IC50 of 990 nM. Against the preceding compound, the IC50 is about 2.8-fold lower.

Compound `O=C(c1ncc[nH]1)N1CCC(Oc2ncccc2C2CCOCC2)CC1` displayed an IC50 of 3670 nM.

Turning to `O=C(c1ccc[nH]1)N1CCC(Oc2ncccc2C2CCOCC2)CC1`, half-maximal inhibition (IC50) was put at 4260 nM. This IC50 and that of the compound before are within 1.5-fold of each other.

The compound `O=C(c1ccccn1)N1CCC(Oc2ncccc2C2CCOCC2)CC1` gave an IC50 of 1260 nM.

The compound `Cc1cccc(C(=O)N2CCC(Oc3ncccc3C3CCOCC3)CC2)n1` gave an IC50 of 1180 nM.

`Cc1ccc(C(=O)N2CCC(Oc3ncccc3C3CCOCC3)CC2)nc1`: the IC50 came out at 1650 nM. This IC50 and that of the compound before are within 1.5-fold of each other.
